In paper PMC10005332, “It Takes Two to Tango, Part II: Synthesis of A-Ring Functionalised Quinones Containing Two Redox-Active Centres with Antitumour Activities” (Molecules, 2023):
Read-outs that look alike come from different tables or passages of the source.

How the values were obtained:
[1] = system: HCT-116 (human colorectal carcinoma); assay: MTT cytotoxicity assay, HCT-116; assay type: cell-based
Method in brief: (§1)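 Cells grown in RPMI 1640 or DMEM with 10% FBS at 37 °C, 5% CO2, treated 72 h with DMSO-dissolved compounds in triplicate. Doxorubicin as positive control.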

[2] = system: PC3 (human prostate adenocarcinoma); assay: MTT cytotoxicity assay, PC3; assay type: cell-based
Method in brief: as §1

[3] = system: SNB-19 (human astrocytoma); assay: MTT cytotoxicity assay, SNB-19; assay type: cell-based
Method in brief: as §1

[4] = system: K-562 (human chronic myeloid leukaemia); assay: MTT cytotoxicity assay, K-562; assay type: cell-based; settings: for IC50: Homo sapiens, K562, MTT, 72 h exposure, three independent experiments, read-out: Cytotoxic activity IC50 (95% CI) K-562; for Selectivity index K-562: ratio of cytotoxicity L929 / K-562
Method in brief: as §1

[5] = system: HL60 (human pro-myelocytic leukaemia); assay: MTT cytotoxicity assay, HL60; assay type: cell-based; settings: for IC50: MTT, 72 h exposure, three independent experiments, read-out: Cytotoxic activity IC50 (95% CI) HL60
Method in brief: as §1

B16 (murine melanoma) = assay: MTT cytotoxicity assay, B16; assay type: cell-based; settings: for IC50: Mus musculus, MTT, 72 h exposure, three independent experiments, read-out: Cytotoxic activity IC50 (95% CI) B16; for Selectivity index B16: ratio of cytotoxicity L929 / B16
Method in brief: as §1

[6] = system: A549 (human lung carcinoma); assay: MTT cytotoxicity assay, A549; assay type: cell-based; settings: for IC50: Homo sapiens, A549, MTT, 72 h exposure, three independent experiments, read-out: Cytotoxic activity IC50 (95% CI) A549; for Selectivity index A549: ratio of cytotoxicity L929 / A549
Method in brief: as §1

[7] = system: KG1 (human acute myeloid leukaemia); assay: MTT cytotoxicity assay, KG1; assay type: cell-based; settings: for IC50: Homo sapiens, MTT, 72 h exposure, three independent experiments, read-out: Cytotoxic activity IC50 (95% CI) KG1; for Selectivity index KG1: ratio of cytotoxicity L929 / KG1
Method in brief: as §1

[8] = system: RAJI (human Burkitt’s lymphoma); assay: MTT cytotoxicity assay, RAJI; assay type: cell-based; settings: for IC50: Homo sapiens, Raji, 72 h, MTT, 72 h exposure, three independent experiments, read-out: Cytotoxic activity IC50 (95% CI) RAJI; for Selectivity index RAJI: ratio of cytotoxicity L929 / RAJI
Method in brief: as §1

[9] = MTT cytotoxicity assay, L929 control line; assay type: cell-based, mouse; settings: mouse, L929 fibroblast cells (non-tumoral control line), 72 h exposure, read-out: Cytotoxic activity IC50 (95% CI) L929
Method in brief: as §1

[10] = system: L929 cells (non-tumoral mouse fibroblast); assay: MTT cytotoxicity assay, L929 control line; assay type: cell-based; settings: 72 h exposure, read-out: Cytotoxic activity IC50 (95% CI) L929
Method in brief: as §1

[11] = system: HCT-116 (human colorectal carcinoma); parameters: method as in PMID 34778772; settings: ratio L929 / HCT-116; * data previously described; cited from earlier work
[12] = system: PC3 (human prostate adenocarcinoma); parameters: method as in PMID 34778772; settings: ratio L929 / PC3; * data previously described; cited from earlier work
[13] = system: SNB-19 (human astrocytoma); parameters: method as in PMID 34778772; settings: ratio L929 / SNB-19; * data previously described; cited from earlier work
[14] = system: HL60 (human pro-myelocytic leukaemia); parameters: method as in PMID 34778772; settings: ratio L929 / HL60; * data previously described; cited from earlier work

SMILES	IC50 [4] [µM]	Selectivity index K-562 [4]	IC50 (B16 (murine melanoma)) [µM]	Selectivity index B16 (B16 (murine melanoma))	IC50 [6] [µM]	Selectivity index A549 [6]	IC50 [7] [µM]	Selectivity index KG1 [7]	IC50 [8] [µM]	Selectivity index RAJI [8]	also measured
O=C1C(=O)c2ccccc2C2=C1CC(Cn1cc(CNC3=CC(=O)c4cc5ccccc5cc4C3=O)nn1)O2 (centres unmarked) [Compound 20e, 2-((4-(((1,4-dioxo-1,4-dihydroanthracen-2-yl)amino)methyl)-1H-1,2,3-triazol-1-yl)methyl)-2,3-dihydronaphtho[1,2-b]furan-4,5-dione]	7.58	2.1	9.57	1.7	12.7	1.3	37	0.4	5.26	3.0	IC50 ([1]; Homo sapiens, HCT-116, 72 h, MTT, 72 h exposure, three independent experiments, read-out: Cytotoxic activity IC50 (95% CI) HCT-116): 7.2 µM; Selectivity index HCT-116 ([1]; ratio of cytotoxicity L929 / HCT-116): 2.2; IC50 ([2]; Homo sapiens, MTT, 72 h exposure, three independent experiments, read-out: Cytotoxic activity IC50 (95% CI) PC3): 17.6 µM; Selectivity index PC3 ([2]; ratio of cytotoxicity L929 / PC3): 0.9; IC50 ([3]; Homo sapiens, SNB-19, MTT, 72 h exposure, three independent experiments, read-out: Cytotoxic activity IC50 (95% CI) SNB-19): 7.87 µM; Selectivity index SNB-19 ([3]; ratio of cytotoxicity L929 / SNB-19): 2.0; IC50 ([5]; Homo sapiens, HL-60, 72 h): 1.6 µM; IC50 [5]: 1.57 µM; Selectivity index HL60 ([5]; ratio of cytotoxicity L929 / HL60): 10.1; IC50 at 72 h [9]: 15.9 µM; IC50 [10]: 15.9 µM
COc1cccc2c1C(=O)c1c(O)c3c(c(O)c1C2=O)C[C@@](O)(C(=O)CO)C[C@@H]3O[C@H]1C[C@H](N)[C@H](O)[C@H](C)O1 [DOXO, doxorubicin, reference compound]	0.91	1.9	0.06	30.2	0.57	3.0	0.38	4.5	2.33	0.7	Selectivity index HCT-116 [11]: 8.2 *; Selectivity index PC3 [12]: 2.3 *; Selectivity index SNB-19 [13]: 1.4 *; Selectivity index HL60 [14]: 86.0 *
